In PubChem BioAssay AID256 (DTP/NCI, 2004):
Toxic doses and inconclusive results are not listed. Rule for the calls: active = survival T/C of 150% or more; inactive = T/C below 125% in these data.

System: CD2F1 mice, L1210 leukemia ip, survival T/C
Assay: NCI In Vivo Anticancer Drug Screen. Data for tumor model L1210 Leukemia (intraperitoneal) in CD2F1 (CDF1) mice
Settings: higher = longer survival
Outline: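 Mice carrying a transplanted tumor received test compound or vehicle alone. The value is the measurement in the treated group divided by that in the vehicle-treated control group.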

[1] = endpoint: mean survival time, dose: 25.0 mg/kg/injection, schedule: Q01DX009 (ip), vehicle: saline with Tween-80
[2] = endpoint: mean survival time, dose: 50.0 mg/kg/injection, schedule: Q01DX009 (ip), vehicle: saline with Tween-80
[3] = endpoint: mean survival time, dose: 100.0 mg/kg/injection, schedule: Q01DX001 (ip), vehicle: saline with Tween-80
[4] = endpoint: mean survival time, dose: 100.0 mg/kg/injection, schedule: Q04DX003 (ip), vehicle: saline with Tween-80
[5] = endpoint: mean survival time, dose: 100.0 mg/kg/injection, schedule: Q01DX009 (ip), vehicle: saline with Tween-80
[6] = endpoint: mean survival time, dose: 200.0 mg/kg/injection, schedule: Q01DX009 (ip), vehicle: saline with Tween-80
[7] = endpoint: mean survival time, dose: 200.0 mg/kg/injection, schedule: Q04DX003 (ip), vehicle: saline with Tween-80
[8] = endpoint: mean survival time, dose: 400.0 mg/kg/injection, schedule: Q04DX003 (ip), vehicle: saline with Tween-80
[9] = endpoint: mean survival time, dose: 12.5 mg/kg/injection, schedule: Q01DX009 (ip), vehicle: saline with Tween-80
[10] = endpoint: mean survival time, dose: 200.0 mg/kg/injection, schedule: Q01DX001 (ip), vehicle: saline with Tween-80
[11] = endpoint: mean survival time, dose: 400.0 mg/kg/injection, schedule: Q01DX001 (ip), vehicle: saline with Tween-80

Measured: T/C

CC1CCOC(C(C)C)O1 (configuration not stated)
inactive: endpoint: mean survival time, dose: 50.0 mg/kg/injection, schedule: Q04DX002 (ip), vehicle: saline 96 % of control | endpoint: mean survival time, dose: 100.0 mg/kg/injection, schedule: Q04DX002 (ip), vehicle: saline 96 % of control | endpoint: mean survival time, dose: 200.0 mg/kg/injection, schedule: Q04DX002 (ip), vehicle: saline 92 % of control

COc1ccc(/C(C#N)=C2\OC(=O)c3ccccc32)cc1OC
inactive: endpoint: mean survival time, dose: 50.0 mg/kg/injection, schedule: Q01DX009 (ip), vehicle: saline 93 % of control | endpoint: mean survival time, dose: 100.0 mg/kg/injection, schedule: Q01DX009 (ip), vehicle: saline 94 % of control | endpoint: mean survival time, dose: 200.0 mg/kg/injection, schedule: Q01DX009 (ip), vehicle: saline 94 % of control | endpoint: mean survival time, dose: 400.0 mg/kg/injection, schedule: Q01DX009 (ip), vehicle: saline 94 % of control

CC(=O)Oc1ccc2ccccc2c1
inactive: [1] 100 % of control | [2] 107 % of control | [3] 107 % of control

COc1ccc(C(=O)/C=C/c2ccc3cc(OC)c(OC)cc3c2)cc1OC
inactive: endpoint: mean survival time, dose: 25.0 mg/kg/injection, schedule: Q01DX009 (ip), vehicle: water 98 % of control | endpoint: mean survival time, dose: 50.0 mg/kg/injection, schedule: Q01DX009 (ip), vehicle: water 102 % of control

CCCCCC(=O)/C=C/Sc1n[nH]c(=O)[nH]c1=O
inactive: endpoint: mean survival time, dose: 12.5 mg/kg/injection, schedule: Q01DX005 (ip), vehicle: distilled water + Tween-80 96 % of control | endpoint: mean survival time, dose: 25.0 mg/kg/injection, schedule: Q01DX005 (ip), vehicle: distilled water + Tween-80 100 % of control | endpoint: mean survival time, dose: 50.0 mg/kg/injection, schedule: Q01DX005 (ip), vehicle: distilled water + Tween-80 104 % of control

CCOC(=O)C1=C(C)O/C(=C/c2cccc(Cl)c2)C1=O
inactive: endpoint: median survival time, dose: 50.0 mg/kg/injection, schedule: Q01DX009 (ip), vehicle: saline with Tween-80 107 % of control | endpoint: median survival time, dose: 100.0 mg/kg/injection, schedule: Q01DX009 (ip), vehicle: saline with Tween-80 110 % of control | endpoint: median survival time, dose: 200.0 mg/kg/injection, schedule: Q01DX009 (ip), vehicle: saline with Tween-80 112 % of control

O=C1CSC(=S)N1/N=C/c1ccc(Cl)c(Cl)c1
inactive: endpoint: mean survival time, dose: 1.56 mg/kg/injection, schedule: Q01DX009 (ip), vehicle: saline with Tween-80 97 % of control | endpoint: mean survival time, dose: 3.13 mg/kg/injection, schedule: Q01DX009 (ip), vehicle: saline with Tween-80 100 % of control | endpoint: mean survival time, dose: 6.25 mg/kg/injection, schedule: Q01DX009 (ip), vehicle: saline with Tween-80 91 % of control | endpoint: mean survival time, dose: 6.25 mg/kg/injection, schedule: Q04DX003 (ip), vehicle: saline with Tween-80 100 % of control

O=C(NNC(=O)OCC(Cl)(Cl)Cl)OCC(Cl)(Cl)Cl
inactive: [4] 102 % of control

COc1cc(NC(=O)CC(C)=O)cc(OC)c1OC
inactive: [5] 100 % of control | [4] 102 % of control | [6] 100 % of control | [7] 96 % of control | endpoint: mean survival time, dose: 400.0 mg/kg/injection, schedule: Q01DX009 (ip), vehicle: saline with Tween-80 101 % of control | [8] 96 % of control

C(=C\c1ccccc1)/C[P+](c1ccccc1)(c1ccccc1)c1ccccc1
inactive: endpoint: mean survival time, dose: 5.0 mg/kg/injection, schedule: Q01DX009 (ip), vehicle: saline with Tween-80 98 % of control | endpoint: mean survival time, dose: 5.0 mg/kg/injection, schedule: Q04DX003 (ip), vehicle: saline with Tween-80 100 % of control | endpoint: mean survival time, dose: 10.0 mg/kg/injection, schedule: Q01DX009 (ip), vehicle: saline with Tween-80 100 % of control | endpoint: mean survival time, dose: 10.0 mg/kg/injection, schedule: Q04DX003 (ip), vehicle: saline with Tween-80 100 % of control | endpoint: mean survival time, dose: 20.0 mg/kg/injection, schedule: Q01DX009 (ip), vehicle: saline with Tween-80 94 % of control | endpoint: mean survival time, dose: 20.0 mg/kg/injection, schedule: Q04DX003 (ip), vehicle: saline with Tween-80 97 % of control

Cc1ccc(OCc2c(COc3ccc(Cl)cc3)sc3ccc(Cl)cc23)cc1
inactive: [4] 96 % of control | [8] 88 % of control

COc1ccc(/C=N/NC(=O)CNC(=O)Nc2cccc(Cl)c2)cc1
inactive: [9] 91 % of control | [1] 91 % of control

CCCCCCCCCCCCOCC[N+](CCO)(CCO)Cc1ccccc1
inactive: endpoint: mean survival time, dose: 0.25 mg/kg/injection, schedule: Q01DX009 (ip), vehicle: saline 91 % of control | endpoint: mean survival time, dose: 0.5 mg/kg/injection, schedule: Q01DX009 (ip), vehicle: saline 107 % of control | endpoint: mean survival time, dose: 1.0 mg/kg/injection, schedule: Q01DX009 (ip), vehicle: saline 90 % of control | endpoint: mean survival time, dose: 5.0 mg/kg/injection, schedule: Q04DX003 (ip), vehicle: saline 102 % of control | endpoint: mean survival time, dose: 10.0 mg/kg/injection, schedule: Q04DX003 (ip), vehicle: saline 101 % of control | endpoint: mean survival time, dose: 20.0 mg/kg/injection, schedule: Q04DX003 (ip), vehicle: saline 93 % of control

C(COCCOCC1CO1)OCCOCC1CO1 (configuration not stated)
inactive: [9] 104 % of control | [1] 108 % of control | [2] 104 % of control | [5] 106 % of control | [6] 104 % of control

NC(=O)c1nc(C2OC(CO)C(O)C2O)cs1 (configuration not stated)
inactive: endpoint: median survival time, dose: 50.0 mg/kg/injection, schedule: Q01DX005 (ip), vehicle: water 100 % of control | endpoint: median survival time, dose: 100.0 mg/kg/injection, schedule: Q01DX005 (ip), vehicle: water 102 % of control | endpoint: median survival time, dose: 200.0 mg/kg/injection, schedule: Q01DX005 (ip), vehicle: water 98 % of control | endpoint: median survival time, dose: 400.0 mg/kg/injection, schedule: Q01DX005 (ip), vehicle: water 101 % of control

Nc1nc2c(ncn2-c2ccc3ccccc3c2)c(=O)[nH]1
inactive: [3] 91 % of control | [10] 88 % of control | [11] 95 % of control

O=S(=O)(/C=C\c1ccccc1)/C=C/c1ccccc1
inactive: [4] 91 % of control | [8] 86 % of control

O/N=C1\CCCCC1C(O)(/C(=N/O)c1ccccc1)c1ccccc1 (configuration not stated)
inactive: [3] 96 % of control | [10] 86 % of control | [11] 91 % of control

C[C@]12CCC(=O)C(O)=C1CC[C@@H]1[C@@H]2CC[C@]2(C)C(=O)CC[C@@H]12
inactive: endpoint: mean survival time, dose: 12.5 mg/kg/injection, schedule: Q01DX009 (ip), vehicle: Klucel (hydroxypropylcellulose) (HPC) 103 % of control | endpoint: mean survival time, dose: 25.0 mg/kg/injection, schedule: Q01DX009 (ip), vehicle: Klucel (hydroxypropylcellulose) (HPC) 97 % of control | endpoint: mean survival time, dose: 50.0 mg/kg/injection, schedule: Q01DX009 (ip), vehicle: Klucel (hydroxypropylcellulose) (HPC) 104 % of control | endpoint: mean survival time, dose: 100.0 mg/kg/injection, schedule: Q01DX009 (ip), vehicle: Klucel (hydroxypropylcellulose) (HPC) 98 % of control | endpoint: mean survival time, dose: 200.0 mg/kg/injection, schedule: Q01DX009 (ip), vehicle: Klucel (hydroxypropylcellulose) (HPC) 91 % of control | endpoint: mean survival time, dose: 400.0 mg/kg/injection, schedule: Q01DX009 (ip), vehicle: Klucel (hydroxypropylcellulose) (HPC) 97 % of control

Cc1cc(=O)c2c(ccc3[nH]c(-c4ccco4)nc32)[nH]1
inactive: endpoint: mean survival time, dose: 100.0 mg/kg/injection, schedule: Q04DX002 (ip), vehicle: saline with Tween-80 95 % of control | endpoint: mean survival time, dose: 200.0 mg/kg/injection, schedule: Q04DX002 (ip), vehicle: saline with Tween-80 102 % of control | endpoint: mean survival time, dose: 400.0 mg/kg/injection, schedule: Q04DX002 (ip), vehicle: saline with Tween-80 91 % of control

CC(=O)N(C)NC(=O)c1ccccn1
inactive: endpoint: mean survival time, dose: 50.0 mg/kg/injection, schedule: Q01DX001 (ip), vehicle: water 106 % of control | endpoint: mean survival time, dose: 100.0 mg/kg/injection, schedule: Q01DX001 (ip), vehicle: water 103 % of control | endpoint: mean survival time, dose: 200.0 mg/kg/injection, schedule: Q01DX001 (ip), vehicle: water 102 % of control | endpoint: mean survival time, dose: 400.0 mg/kg/injection, schedule: Q01DX001 (ip), vehicle: water 103 % of control

CSc1nc(C)cc(N)n1
inactive: [4] 107 % of control | [7] 102 % of control
